From EP4692094A1 (Beijing Konruns Pharmaceutical Co., Ltd., priority 2023, dated 2024) come the findings set out here.

What all share (type): in vitro ADME
Data set [1] is described as follows: Assay for plasma protein binding rate (equilibrium dialysis), rat plasma. To be noted: dialysis 6 h at 37 °C, read-out: Rat (Fu%). As to the method:
1.1 Preparation of compounds: The compounds prepared in the examples were each dissolved in dimethylsulfoxide to give solutions at a concentration of 10 mmol/L. • 1) The example compounds were each diluted from 10 mmol/L stock solution to 0.2 mmol/L, i.e., 1 µL of the compound was added to 49 µL of DMSO; • 2) 3 µL of 0.2 mmol/L test compounds were added to 597 µL of blood plasma, and the mixtures were vortexed at 1000 rpm for 2 min; • 3) 50 µL of the plasma containing the drug in 2) was taken, 50 µL of PBS was added, and 300 µL of methanol internal standard* was added to serve as a sample T0; • 4) 120 µL of the plasma containing the drug in 2) was taken and added to one side of an HTD device membrane, and 120 µL of PBS was added to the other side of the membrane; a breathable film was covered, and the plasma and the residual sample in 2) were balanced at 37 °C (100 rpm and 5% CO2) for 6 h; • 5) 50 µL of the dialyzed plasma side sample was taken, 50 µL of PBS was added, and 300 µL of methanol internal standard* was added to serve as a sample P; • 6) 50 µL of the dialyzed PBS side sample was taken, 50 µL of blank plasma was added, and 300 µL of methanol internal standard* was added to serve as a sample B; • 7) 50 µL of the plasma containing the drug in 2) was taken, 50 µL of PBS was added, and 300 µL of methanol internal standard* was added to serve as a sample T6; • 8) All samples were vortexed, mixed homogeneously, and then centrifuged at 3220 g for 40 min at 4 °C; • 9) 100 µL of the supernatant and 100 µL of purified water were mixed homogenously for liquid chromatography-mass spectrometry.
An internal standard method was used, and the plasma protein binding rate, recovery rate, and residual percentage were calculated by using Excel according to the ratio of the peak area of the sample to the peak area of the internal standard. Free rate(%) = (RatioB)/(RatioP) × 100% [formula] Binding rate(%) = 100%−Free rate% [formula] Recovery rate(%) = (RatioB + RatioP)/(RatioT0) × 100% [formula] Remaining percentage(%) = (RatioT6)/(RatioT0) × 100% [formula]
RatioB: a ratio of the peak area of the test substance on the PBS side to the peak area of the internal standard; RatioP: a ratio of the peak area of the test substance on the plasma side to the peak area of the internal standard; RatioT6: a ratio of the peak area of the sample after incubation with the test substance for 6 h to the peak area of the internal standard; RatioT0: a ratio of the peak area of the sample after incubation with the test substance for 0 h to the peak area of the internal standard. Table 8. Plasma protein binding rate (Fu%) data for various species of example compounds
A general note: In equilibrium dialysis free small molecules cross a membrane that holds back macromolecules.

A further data set concerns the target T1, CYP2C19 (Homo sapiens, UniProt P33261).
T1 construct: from tissue; host or cells: human liver microsomes
Kind of data set: Inhibitory effect on P450 enzymes in vitro (human liver microsomes), CYP2C19. To be noted: probe mephenytoin, final concentration 10 µM, substrate mephenytoin, read-out: % inhibition rate CYP2C19 (mephenytoin). As to the method:
(§1) 1.1 Preparation of compounds: The compounds prepared in the examples were each dissolved in dimethylsulfoxide to give solutions at a concentration of 2 mmol/L.
(§2) 1.2 Test methods: • 1) Incubation system: human liver microsomes, a MgCl2 solution, a phosphate buffer solution, and a substrate solution were each added a 96-well deep-well plate and mixed homogenously. In the final incubation system, the concentration of the human liver microsomes was 0.2 mg/mL, and the final concentrations of the MgCl2 solution and the phosphate buffer solution were 5 mM and 100 mM, respectively. • 2) 1 µL of the substrate solution was added to the incubation system, and the final concentrations of CYP1A2 phenacetin, 2C8 paclitaxel […], 2C19 mephenytoin, 2D6 midazolam, and 3A midazolam substrates were 40 µM (phenacetin), 5 µM (paclitaxel), 50 µM (mephenytoin), 10 µM (mephenytoin), 5 µM (midazolam), and 50 µM […], respectively. • 3) 1 µL of the example compound or vehicle (DMSO) was added to the incubation system, and the incubation system was pre-warmed for 5 min in a 37 °C water bath before starting the reaction with 20 µL of 10 mM NADPH solution.
(§3) 1.3 Sample treatment: Within the designated time (20 min for phenacetin, 10 min for paclitaxel, 20 min for mephenytoin, 20 min for dextromethorphan, 5 min for midazolam, and 10 min for testosterone), 400 µL of methanol containing the internal standard was added to terminate the reaction, and the mixture was vortexed and mixed homogeneously. Then, the deep-well plate was centrifuged at 3220 g and 4 °C for 40 min. 100 µL of the supernatant was transferred into a new plate, and 150 µL of purified water was added. The mixture was mixed homogenously for LC-MS/MS analysis. Table 11. Inhibitory effects of some compounds in the examples on CYP enzymes

Another data set addresses T2, CYP2D6 (Homo sapiens, UniProt P10635).
T2 construct: from tissue; host or cells: human liver microsomes
Nature of the data set: Inhibitory effect on P450 enzymes in vitro (human liver microsomes), CYP2D6. The following applies: probe dextromethorphan, final concentration 10 µM, substrate dextromethorphan, read-out: % inhibition rate CYP2D6 (dextromethorphan). The method, then:
as §1, §2, §3

T1 sequence (P33261 whole entry): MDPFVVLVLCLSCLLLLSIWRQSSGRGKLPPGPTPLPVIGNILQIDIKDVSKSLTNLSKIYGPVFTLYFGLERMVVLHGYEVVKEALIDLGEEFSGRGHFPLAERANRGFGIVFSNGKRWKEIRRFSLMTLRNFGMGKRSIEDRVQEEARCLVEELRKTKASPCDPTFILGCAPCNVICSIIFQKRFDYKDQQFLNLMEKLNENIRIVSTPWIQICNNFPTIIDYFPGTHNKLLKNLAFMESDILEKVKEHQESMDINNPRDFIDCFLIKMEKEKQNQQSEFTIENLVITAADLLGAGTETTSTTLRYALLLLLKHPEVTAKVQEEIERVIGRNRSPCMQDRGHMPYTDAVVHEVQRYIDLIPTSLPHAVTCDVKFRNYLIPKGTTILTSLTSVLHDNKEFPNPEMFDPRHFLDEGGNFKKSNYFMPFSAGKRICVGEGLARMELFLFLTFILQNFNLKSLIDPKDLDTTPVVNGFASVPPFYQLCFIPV
T2 sequence (P10635 whole entry): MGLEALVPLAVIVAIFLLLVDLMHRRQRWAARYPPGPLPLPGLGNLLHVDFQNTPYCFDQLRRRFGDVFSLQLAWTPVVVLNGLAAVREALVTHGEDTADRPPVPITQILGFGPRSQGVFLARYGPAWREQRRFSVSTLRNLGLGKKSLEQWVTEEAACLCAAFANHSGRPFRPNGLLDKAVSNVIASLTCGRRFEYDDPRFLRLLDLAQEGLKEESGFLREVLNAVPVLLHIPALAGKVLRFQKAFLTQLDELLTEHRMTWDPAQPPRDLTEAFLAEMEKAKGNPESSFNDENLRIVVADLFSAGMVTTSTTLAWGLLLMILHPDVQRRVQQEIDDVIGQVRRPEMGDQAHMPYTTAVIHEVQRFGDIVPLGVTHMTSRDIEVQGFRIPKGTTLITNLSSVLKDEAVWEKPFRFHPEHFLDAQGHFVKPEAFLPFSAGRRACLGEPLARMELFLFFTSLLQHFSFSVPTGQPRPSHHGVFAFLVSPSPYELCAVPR

Turning to `COc1cc2c(cc1S(=O)(=O)Nc1noc3cc(Cn4cccn4)nc(OC)c13)CCCO2` [Example 76, N-(6-((1H-Pyrazol-1-yl)methyl)-4-methoxyisoxazolo[4,5-c]pyridin-3-yl)-7-methoxy-3,4-dihydro-1H-benzopyran-6-sulfonamide], in data set [1], the fraction unbound at 6 h, 1 µM is 0.0144.
Usually inhibition stands for the drop in the measured response relative to a control, in per cent. `COc1cc2c(cc1S(=O)(=O)Nc1noc3cc(Cn4cccn4)nc(OC)c13)OCC2` [Example 59, N-(6-((1H-Pyrazol-1-yl)methyl)-4-methoxyisoxazolo[4,5-c]pyridin-3-yl)-5-methoxy-2,3-dihydrobenzofuran-6-sulfonamide]: the fraction unbound at 6 h, 1 µM in data set [1] was 0.0414. In addition, the inhibition at 20 min, 10 µM on CYP2C19 was determined as 7.62%; at CYP2D6 it was 4.62%.
For `COc1cc2c(cc1S(=O)(=O)Nc1noc3cc(Cn4cccn4)nc(OC)c13)CCCC2` [Example 2, N-(6-((1H-Pyrazol-1-yl)methyl)-4-methoxyisoxazolo[4,5-c]pyridin-3-yl)-3-methoxy-5,6,7,8-tetrahydronaphthalene-2-sulfonamide], the fraction unbound at 6 h, 1 µM in data set [1] stood at 0.0167. Further, the inhibition at 20 min, 10 µM at CYP2C19 was 42.8%; on CYP2D6 it was 5.38%.
For `COc1ccc2ccoc2c1S(=O)(=O)Nc1noc2cc(Cn3cccn3)nc(OC)c12` [Example 10, N-(6-((1H-Pyrazol-1-yl)methyl)-4-methoxyisoxazolo[4,5-c]pyridin-3-yl)-6-methoxybenzofuran-7-sulfonamide] the same measures were 0.0132, 9.54% and 6.03%.
As to `COc1ccc2c(c1S(=O)(=O)Nc1noc3cc(Cn4cccn4)nc(OC)c13)OCC2` [Example 9, N-(6-((1H-Pyrazol-1-yl)methyl)-4-methoxyisoxazolo[4,5-c]pyridin-3-yl)-6-methoxy-2,3-dihydrobenzofuran-7-sulfonamide], in data set [1], the fraction unbound at 6 h, 1 µM was determined as 0.0257.
